From patent US5405843A, “Quinoline derivatives” (Mitsui Toatsu Chemicals, Incorporated, priority 1988, dated 1995)

Experiments:
[1] = test system: Vincristine-resistant strain P388/VCR cells of mouse leukemia P388 cells; assay: Potentiating effect on vincristine in mice having vincristine-resistant mouse leukemia (survival); type: in vivo, mouse (female CDFI mice); details: compound 30 mg/kg + vincristine 100 ug/kg, peritoneal, once a day for 5 days; for T/C (rate of life prolongation): control = 100
[2] = test system: Adriamycin resistant strain 2780 AD cells of human ovarian cancer A2780 cells; assay: Potentiating effect on incorporation of 3H-vincristine into adriamycin-resistant cancer cells; type: cell-based; details: 20 nM 3H-vincristine; for activity at 1 µg/mL / activity at 10 µg/mL: Homo sapiens, 2780AD, 2 h, control = 100, read-out: 3H-vincristine accumulation; for activity at 10 µg/mL: compound 10 μg/ml
Method: Potentiating Effect of the Compounds on Incorporation of Anticancer Drugs into Drug-resistant Cancer Cells
Adriamycin resistant strain 2780 AD cells of human ovarian cancer A2780 cells (A. M. Rogan et al., Science 224, 994-996, 1984) were suspended at a concentration of 1×10^6 /ml in RPMI-1640 medium supplemented with 5% fetal calf serum, and 1 ml of the cancer cell suspension was dispensed into each well of a multi-well culture plate (24 wells, […] in diameter) and then incubated at 37° C. in an atmosphere of 5% CO2. After 24 hours incubation, the medium in each well was replaced by 0.5 ml of RPMI-1640 medium supplemented containing 20 nM ^3 H-vincristine (1×10^4 dpm/pmol), 5% fetal calf serum and 10 mM Hepes buffer. Five microliters of a solution of the compound to be tested, which had been dissolved in DMSO and diluted with […] (at a concentration of 1.0 microgram/ml or 10.0 micrograms/ml), was added to each well and the incubation was continued at 37° C. in 5% CO2 for 2 hours. The resultant cells were washed in cold saline-phosphate buffer. In each well was added 0.5 ml of 0.2N NaOH, and the resulting cell suspension in each well was independently transferred into a vial and then heated in a water bath at 56° C. for 30-60 minutes to dissolve the cells. After adding 4 ml of acid aquazole 2, the amount of ^3 H-vincristine incorporated into the cells was determined by a fluid scintillation counter.

Row | SMILES | Average surviving period [1] | T/C (rate of life prolongation) [1] | activity at 1 µg/mL ([2]; compound 1 μg/ml) | activity at 10 µg/mL [2] | 3H-vincristine accumulation ([2]; compound 1 μg/ml, 2 hours, control = 100, 120 min)
1 | CN(CCN(C)C(c1ccccc1)c1ccccc1)CC(O)COc1cccc2ncccc12 (stereo not drawn) [Example 3, 5-(3-[N-(2-(N-Diphenylmethyl-N-methylamino)ethyl)-N-methylamino]-2-hydroxypropoxy)quinoline] | 11.0 ± 0.6 days | 100% | 731% | 774% | 
2 | OC(COc1cccc2ncccc12)CN1CCCN(C(c2ccccc2)c2ccccc2)CC1 (stereo not drawn) [Example 4, 5-[3-(4-Diphenylmethylhomopiperazine-1-yl)-2-hydroxypropoxy]quinoline] | 11.8 ± 0.4 days | 107% | 438% | 770% | 
3 | Cc1cc(C)c2c(OCC(O)CN3CCN(C(c4ccccc4)c4ccccc4)CC3)cccc2n1 (stereo not drawn) [Example 5, 2,4-Dimethyl-5-[3-(4-diphenylmethylpiperazine-1-yl)-2-hydroxypropoxy]quinoline] | 12.8 ± 0.8 days | 124% | 732% |  | 
4 | OC(COc1cccc2ncccc12)CN1CCN(C2c3ccccc3COc3ccccc32)CC1 (stereo not drawn) [Example 6, 5-[3-(4-(6,11-Dihydrodibenzo[b,e]oxepine-11-yl)piperazine-1-yl)-2-hydroxypropoxy]quinoline] | 13.4 ± 0.7 days | 128% |  |  | 
5 | OC(COc1cccc2ncccc12)CN1CCC(C(O)(c2ccccc2)c2ccccc2)CC1 (stereo not drawn) [Example 7, 5-[3-(4-(Diphenyl-hydroxymethyl)piperidine-1-yl)-2-hydroxypropoxy]quinoline] | 12.9 ± 0.5 days | 123% | 972% |  | 
6 | COc1ccc2c(OCC(O)CN3CCN(C(=O)C(c4ccccc4)c4ccccc4)CC3)cccc2n1 (stereo not drawn) [Example 8, 5-[3-(4-(2,2-Diphenylacetyl)piperazine-1-yl) -2-hydroxypropoxy]-2-methoxyquinoline] | 12.2 ± 0.6 days | 115% | 394% | 863% | 
7 | COc1ccc2c(OCC(O)CN3CCN(C4c5ccccc5CCc5ccccc54)CC3)cccc2n1 (stereo not drawn) [Example 9, 5-[3-(4-(Dibenzosuberane-5-yl)piperazine-1-yl)-2-hydroxypropoxy]-2-methoxyquinoline] | 14.2 ± 0.6 days | 134% | 721% | 947% | 
8 | CCN(CCN(CC)C(c1ccccc1)c1ccccc1)CC(O)COc1cccc2ncccc12 (stereo not drawn) [Example 10, 5-(3-[N-(2-(N-Diphenylmethyl-N-ethylamino)ethyl)-N-ethylamino]-2-hydroxypropoxy)quinoline] | 12.3 ± 1.4 days | 112% | 642% | 932% | 
9 | COc1ccc(C(c2cccc(OC)c2OC)N2CCN(CC(O)COc3cccc4ncccc34)CC2)cc1OC (stereo not drawn) [Example 11, 5-[3-(4-(2,3,3',4'-Tetramethoxydiphenylmethyl)piperazine-1-yl)-2-hydroxypropoxy]quinoline] | 12.1 ± 0.5 days | 115% | 735% |  | 
10 | CCc1cnc2cccc(OCC(O)CN3CCN(C(c4ccccc4)c4ccccc4)CC3)c2c1 (stereo not drawn) [Example 12, 3-Ethyl-5-[3-(4-diphenylmethylpiperazine-1-yl)-2-hydroxypropoxy]quinoline] | 12.5 ± 0.5 days | 114% | 568% | 831% | 
11 | OC(COc1cccc2ncccc12)CN1CCC(=C(c2ccccc2)c2ccccc2)CC1 (stereo not drawn) [Example 13, 5-[3-(4-(Diphenylmethylene)piperidine-1-yl)-2-hydroxypropoxy]quinoline] | 15.3 ± 0.5 days | 139% | 517% | 805% | 
12 | OC(COc1cccc2ncccc12)CN1CCN(C(c2ccccc2)c2ccccn2)CC1 (stereo not drawn) [Example 15, 5-[2-Hydroxy-3-(4-(phenyl-2-pyridylmethyl)piperazine-1-yl)propoxy]quinoline] | 12.3 ± 0.4 days | 117% | 840% |  | 
13 | O=C(C(c1ccccc1)c1ccccc1)N1CCN(CC(O)COc2cccc3ncccc23)CC1 (stereo not drawn) [Example 16, 5-[3-(4-(2,2-Diphenylacetyl)piperazine-1-yl)-2-hydroxypropoxy]quinoline] | 13.9 ± 1.4 days | 132% | 850% | 982% | 
14 | OC(COc1cccc2ncccc12)CN1CCN(CC(c2ccccc2)c2ccccc2)CC1 (stereo not drawn) [Example 17, 5-[3-(4-(2,2-Diphenylethyl)piperazine-1-yl)-2-hydroxypropoxy]quinoline] | 11.8 ± 1.1 days | 115% | 730% |  | 
15 | OC(COc1cccc2nc(Cl)ccc12)CN1CCN(C2c3ccccc3CCc3ccccc32)CC1 (stereo not drawn) [Example 18, 5-[3-(4-(5-Dibenzosuberanyl)piperazine-1-yl)-2-hydroxypropoxy]-2-chloroquinoline] | 13.8 ± 0.4 days | 131% | 743% | 761% | 
16 | OC(COc1cccc2ncccc12)CN1CCN(C2c3ccccc3C=Cc3ccccc32)CC1 (stereo not drawn) [Example 20, 5-[3-(4-(5-Dibenzosuberenyl)piperazine-1-yl)-2-hydroxypropoxy]quinoline] | 13.7 ± 1.0 days | 133% | 794% |  | 
17 | Cc1cc(C)c2c(OCC(O)CN3CCN(C4c5ccccc5COc5ccccc54)CC3)cccc2n1 (stereo not drawn) [Example 21, 2,4-Dimethyl-5-[3-(4-(6,11-dihydrodibenzo[b,e]oxepine-11-yl)piperazine-1-yl)-2-hydroxypropoxy]quinoline] | 12.5 ± 0.6 days | 121% | 727% | 745% | 
18 | Cc1cc(C)c2c(OCC(O)CN3CCN(C4c5ccccc5CCc5ccccc54)CC3)cccc2n1 (stereo not drawn) [Example 22, 5-[3-(4-(Dibenzosuberane-5-yl)piperazine-1-yl)-2-hydroxypropoxy]-2,4-dimethylquinoline] | 13.9 ± 0.4 days | 132% | 723% | 743% | 
19 | OC(CNc1cccc2ncccc12)CN1CCN(C(c2ccccc2)c2ccccc2)CC1 (stereo not drawn) [Example 27, 5-[3-(4-Diphenylmethylpiperazine-1-yl)-2-hydroxypropylamino]quinoline] | 12.3 ± 0.3 days | 119% |  |  | 
20 | CS(=O)(=O)c1ccc2c(OCC(O)CN3CCN(C4c5ccccc5CCc5ccccc54)CC3)cccc2n1 (stereo not drawn) [Example 71, 2-Methylsufonyl-5-[3-(4-(dibenzosuberane-5-yl)piperazine-1-yl)-2-hydroxypropoxy]quinoline] |  |  | 501% | 921% | 
21 | OC(COc1cccc2ncccc12)CN1CCN(C2c3ccccc3Oc3ccccc32)CC1 (stereo not drawn) [Example 72, 5-[3-(4-(Xanthene-9-yl)piperazine-1-yl)-2-hydroxypropoxy]quinoline] |  |  | 112% | 144% | 
22 | OC(CSc1cccc2ncccc12)CN1CCN(C(c2ccccc2)c2ccccc2)CC1 (stereo not drawn) [Example 74, 5-[3-(4-Diphenylmethylpiperazine-1-yl)-2-hydroxypropylthio]qunoline] |  |  |  |  | 626%
23 | OC(CSc1cccc2ncccc12)CN1CCN(C2c3ccccc3CCc3ccccc32)CC1 (stereo not drawn) [Example 75, 5-[3-(4-(Dibenzosuberane-5-yl)piperazine-1-yl)-2-hydroxy-propylthio]quinoline] |  |  | 587% |  | 
24 | OC(COc1cccc2nc(C(F)(F)F)cc(C(F)(F)F)c12)CN1CCN(C2c3ccccc3CCc3ccccc32)CC1 (stereo not drawn) [Example 76, 5-[3-(4-(Dibenzosuberane-5-yl)piperazine-1-yl)-2-hydroxypropoxy]-2,4-bis(trifluoromethyl)quinoline] |  |  | 130% | 304% | 
25 | OC(COc1cccc2ncccc12)CN1CCC(=C2c3ccccc3C=Cc3ccccc32)CC1 (stereo not drawn) [Example 77, 5-[3-(4-(Dibenzosuberene-5-ylidene)piperidine-1-yl)2-hydroxypropoxy]quinoline] | 13.8 ± 1.2 days | 129% |  |  | 
26 | OC(COc1cccc2ncccc12)CN1CCC(C2(O)c3ccccc3C=Cc3ccccc32)CC1 (stereo not drawn) [Example 79, 5-[2-Hydroxy-3-(4-(5-hydroxydibenzosuberene-5-yl)piperidine-1-yl)propoxy]quinoline] |  |  | 841% | 963% | 
